Results on 1 compound are retold here after US20060025449A1, “Use of N-substituted imino sugars for appetite suppression” (priority 2004, published 2006).

Data set [1] deals with C57B1/6 mice. In words: Skin histology/thickness and gross dissection for white adipose tissue. The format is in vivo, mouse. The procedure:
Six week-old control mice on a normal diet or treated with 2400 mg/kg/day NB-DNJ for four weeks (n=3 in each group), were sacrificed and hair removed by shaving followed by application of a depilatory cream. A small section of skin was excised from the same area of the back of each mouse and processed for histology. After excision, the skin was put into mini histology trays containing OCT compound (BDH Laboratory Supplies, UK) and frozen for cryo-sectioning. Cryosections (10 μm thickness) of skin were then fixed in ice-cold acetone for 30 sec and rinsed under running tap water for 1 minute before dipping briefly in Mayer's haemotoxylin (Sigma, UK). The sections were dehydrated through a rising ethanol concentration series of 70%, 80%, 95%, 100% before clearing with Histo-Clear Histological Clearing agent (National Diagnostics, […], Hull, UK) twice for 5 min. Finally, the sections of skin were mounted with cover slips and DePeX mounting medium (BDH Laboratory Supplies, UK) on glass microscope slides. Another portion of skin (5 mm^2) was taken from each mouse, placed on a microscope slide and skin thickness measured using a micrometer gauge. […] Also, after complete depilation, this group of mice had transparent skin making the visceral organs, ventrally, and the kidneys and spinal vertebrae, dorsally, clearly visible in contrast to the opaque, non-transparent skin of controls. […]

The subject of data set [2] is C57B1/6 mice. In words: Effect of imino sugars admixed with diet on growth of normal control mice. The format is in vivo, mouse. The procedure:
Control C57B1/6 and C57BL/6O1aHsd-Lep ob mice were obtained from Harlan, UK at five weeks of age. The mice were housed under standard non-sterile conditions and fed a diet of mouse chow pelleted or expanded ground RM1 diet (SDS Ltd, Witham, Essex) with water available ad libitum. For dietary treatment of the mice with NB-DNJ or NB-DGJ, the diet and compound were admixed thoroughly as dry solids, stored at room temperature and used within 7 days. Unless indicated otherwise, mice were treated with a dose of 2400 mg/kg body weight per day, assuming an intake of around 5 g diet/day. Mice were maintained on diet with or without compound for up to six months of age and were weighed at regular intervals during the course of the experiment (see figure legends for group sizes and further experimental details). To study the effect of compound on obese mice, three groups (n=5) of ob/ob mice were monitored from five weeks of age. One group acted as control and were fed ground RM1 diet. At 6 weeks of age, the second group was started on NB-DNJ in the diet, whilst the third group started drug treatment at 12 weeks of age. All mice were then monitored for up to six months of age. […] In the first week of treatment, mice with NB-DNJ in their diet lost about 10% of their total body mass. Over the course of the following weeks, their weight stabilises. By 5 weeks of treatment they weighed 25% less than the controls. They then started to gain weight. However, after 10 weeks they remained 20% less in mass when compared with the age and sex-matched control group.

Data set [3] has as its system lean control and obese mice. In words: Dietary intake in lean and obese mice (compound in diet or intraperitoneal injection). The format is in vivo, mouse. Here is the method:
Dietary intake of mice on powdered diets was measured on a daily basis, by pre-weighing diet put into the feeding hoppers then weighing remaining diet daily. Diet which the mice had spilt on the floor of the cage, was carefully recovered by sieving and incorporated into the measurements. In order to facilitate measurement of dietary intake, to exclude possible effects of the bitter taste of imino sugar in the diet and also inhibitory effects on disaccharidases in the gastrointestinal tract, groups of control and obese mice five weeks old were given daily intraperitoneal injections of NB-DNJ at a dose equivalent to 2400 mg/kg/day. A further group of obese mice was given daily intraperitoneal injections for two weeks from 10 weeks old. Control mice for each group were injected with an equal volume of isotonic saline vehicle. After assessment of dietary intake over five weeks in controls and three weeks in the obese mice, a restricted diet of 3.2 g/day for controls and 4.0 g/day for the obese mice was provided to compare with the effect of intraperitoneal injection. This equated to a 30% reduction in dietary provision for both groups of mice. […] Platt et al., J Biol Chem 272, 19365-72. This hypothesis was tested by measuring dietary intake in both lean and obese mice fed on both powdered chow with or without imino sugar and with pelleted diet. To exclude any effects of the bitter taste of imino sugars and also as a means to bypass any disaccharidase inhibition in the gut, lean control and obese mice were given daily intraperitoneal injections of NB-DNJ for five and three weeks respectively. Also, a group of obese mice had NB-DNJ mini-pumps implanted and, after four weeks, when the pumps were empty, were then given intraperitoneal injections daily. This delivery route has the advantage that it allows easy assessment of dietary intake, as the mice can eat pelleted diet.

The subject of data set [4] is C57B1/6 mice. As to conditions: Platt et al.; cited from earlier work.
For data set [5], the system named is C57B1/6 mice. The class given is in vivo, mouse. The procedure: Growth rates of control and NB-DNJ-treated mice were analysed statistically by univariate analysis of variance (ANOVA) using SPSS software to compare slopes of growth from 54 to 174 days of age.
The effect of NB-DNJ on lean body mass growth was also assessed by measuring tibia lengths in a group of 20 control mice at one year old, 5 mice at 2 years old and two mice 19.5 months old after 18 months on 2400 mg/kg/day. Tibias were dissected from both hind-limbs then boiled in distilled water for 20 min to clean the bone of remaining connective tissue and muscle. Tibia length was then measured using calipers.
It can also be seen (FIG. 4) that the control mice lost weight over the first two weeks of treatment and then started to grow again, and continued to gain weight for the remainder of the study. […] Growth in both groups of mice as measured by the gradient of the line is similar and the data were analysed by univariate analysis of variance (ANOVA) to compare the slopes of growth statistically.
To establish further, whether NB-DNJ has an effect on lean growth of mice tibia lengths were measured in a large (n=20) group of control mice at one year of age, a smaller group (n=5) at two years of age and a comparison was made with two mice treated with NB-DNJ for 18 months.

Take `CCCCN1C[C@H](O)[C@@H](O)[C@H](O)[C@H]1CO` [NB-DNJ, N-butyldeoxynojirimycin]: in the data set with C57B1/6 mice [1] (2400 mg/kg/day), the “white adipose tissue on gross dissection” value is listed as “significant depletion of white adipose tissue”. Moreover, the “reduction in mouse skin thickness” value with C57B1/6 mice [1] (2400 mg/kg/day for four weeks, six week-old mice) is 40%. In addition, the “loss of total body mass” value in the data set on C57B1/6 mice [2] (2400 mg/kg/day in diet from 6 weeks of age, first week of treatment) is on record as “about 10%”. For the same compound, in the data set on C57B1/6 mice [2] (2400 mg/kg/day in diet, after 10 weeks), the “less in mass compared with age and sex-matched control group” value is given as 20%. The “weighed less than the controls” value in the data set with C57B1/6 mice [2] (2400 mg/kg/day in diet, by 5 weeks of treatment) worked out at 25%. The “reduction in food intake” value in data set [3] (all groups of mice, pelleted or powdered diet, 2400 mg/kg/day equivalent) is listed as “around 30%”. In data set [3] (intraperitoneally injected mice, 2400 mg/kg/day equivalent), the “eat less than age and sex-matched controls” value stood at 30%. In data set [3] (lean and obese groups), the “ate less than untreated controls” value was “up to one third less”. Further, in the data set on C57B1/6 mice [4], the “dose at which a well-defined effect on total body weight has been seen” value was no less than 600 mg/kg/day. Also, the “weighing less than control counterparts after original weight loss” value with C57B1/6 mice [5] (2400 mg/kg/d in diet) was determined as 4 g. Also, the “lean mass” value in the data set on C57B1/6 mice [5] (admixed with diet, lean mice) is listed as “did not have any reduction in lean mass”. Further, in the data set on C57B1/6 mice [5] (two mice treated for 18 months, 2400 mg/kg/day), the “tibia lengths” value was “within the normal range”.
